# Literature values, collected in patent US20250360058A1, “IN SITU FORMED CATIONIC ACP GEL FOR TREATMENT OF TOOTH […]” (KONINKLIJKE PHILIPS N.V., priority 2022, published 2025).
# Details: between pH 6.5-8.0
row,SMILES,positively charged basic side chains [%]
1,"N=C(N)NCCC[C@H](N)C(=O)O [Arginine, arginine]",100
2,"NCCCC[C@H](N)C(=O)O [Lysine, lysine]",100
